Experimental data from patent US20090281061A1, “Impaired Alleles of Genes Involved in Metabolic Pathways and Methods for Detecting and Using the Same” (The Regents of the University of California, priority 2008, published 2009).

Key:
human MTHFR [1] = experiment: Cell-free MTHFR enzyme activity assay in crude yeast extract, with heat treatment at 55° C.; assay type: biochemical; conditions: crude yeast lysate
human MTHFR [2] = molecular target: T1, human MTHFR (Homo sapiens, UniProt P42898); experiment: as above; assay type: biochemical; conditions: 55° C., 20 m
T1 construct: made in house; host or cells: Saccharomyces cerevisiae fol3Δ met13Δ, GAL1 promoter, crude extract

Substance | cell-free enzyme activity compared with the major allele (human MTHFR [1]) | activity retained after heat treatment, of original activity (human MTHFR [2])
E429A: common human MTHFR variant, regulatory domain | benign | 
R594Q: common human MTHFR variant, regulatory domain | benign | 
major allele: the most common human MTHFR allele in the population, expressed in yeast |  | about 30%
